Data taken from patent US20250177525A1, “POLYDONOR CD4+ T CELLS EXPRESSING IL-10 AND USES THEREOF” (TR1X, INC., priority 2021, published 2025).

Tested on: NLPR3 inflammasome
Experiment: IL-1β production by LPS activated monocytes
Assay type: cell-based, human
Details: anti-IL-10R antibody
Protocol: CD14^+ monocytes were isolated from PBMC using a pan monocyte isolation kit (Miltenyi Biotec, Bergisch Gladbach, Germany) and plated in 96 flat microtiter wells at 2×10^5/200 μL per well and cultured in the presence of LPS. The cells were cultured further in the presence of Z-YVADfmk (20 microMol), MMC950 (10 microMol), IL-10 (10 ng/mL) or various concentrations of single- or pooled donor CD4^IL-10 cell supernatants as summarized in Table 1.
The supernatants were obtained from single- or pooled donor CD4^IL-10 cells activated for 72 hours with a combination of CD3 and CD28 antibodies as described previously. (Andolfi et al. 2012, Mol. Therapy Vol. 20, 1778-1790, Locafaro et al. Mol Ther 2017, 25, 2254) In some cases (FIGS. 19C and 19D), the monocytes were incubated with LPS in combination with the NLPR3 inflammasome activator nigericin (“NIG”) which was added during the last 30 minutes of the LPS activation.
The NLPR3 inflammasome was activated by LPS, resulting in the production of mature caspase 1 and the biologically active forms of IL-1β and IL-18.

Row | Compound | effect of anti-IL-10 receptor antibody on the inhibitory effects
1 | CC(C)(O)c1coc(S(=O)(=O)NC(=O)Nc2c3c(cc4c2CCC4)CCC3)c1 [MCC950] | no effect
2 | Z-YVADfmk [Z-VADfmk] | no effect
